Patent publication US20100035984A1, “Use of an antibacterial compound which is derived from alliaceae, as a natural additive in animal feed” (DMC Research Center, S.L., priority 2006, published 2010)
“And” between values parts separate entries of the source, which are not always exact repeats. Equal values may be shown once. Marks after values point to notes of the source that are not given here.

Experiments:
Assay type in all cases: cell-based
[1] = system: total anaerobes, total aerobes, enterobacteria, coliform bacteria, bacteroides, clostridia, lactobacilli and bifidobacteria; experiment: In vitro fermentation of pig feces inoculum, counts of all bacterial groups (Example 1); conditions: 50 to 2000 mg/L in culture medium, 24 hours in vitro fermentation, inocula from piglet feces
Experimental: FIG. 1 is a graph relating to Example 1 (study of the porcine digestive microbial composition) showing the effect of different concentrations of the compound PTSO after 24 hours of in vitro fermentation on the total anaerobic bacteria, total aerobic bacteria, enterobacteria, coliform bacteria, bacteroides, clostridia, lactobacilli and bifidobacteria count present in pig feces. The vertical axis of the graph determines the log 10(cfu/g feces) and the horizontal axis determines the bacterial group.
The described assays are carried out using complete bacterial inocula obtained from feces of piglets in post-weaning stage.

[2] = system: lactobacilli; experiment: In vitro fermentation of pig feces, lactobacilli count (Example 2); conditions: 200 mg/L, 24 hours
Experimental: (§1) The mean values affected by different indexes indicate significant differences (p<0.05). The vertical axis of the graph determines the log 10(cfu/g feces) and the horizontal axis determines the compound. The described assays are carried out using complete bacterial inocula obtained from feces of piglets in post-weaning stage. Two of the compounds (referenced as PTS and as PTSO) are assayed in a lower dose range (50-400 mg/L).

[3] = system: bifidobacteria; experiment: In vitro fermentation of pig feces, bifidobacteria count (Example 2); conditions: 200 mg/L, 24 hours
Experimental: as §1

[4] = system: microbiota of the ruminal inoculum (ruminal fluid of goats); experiment: In vitro ruminal degradation of experimental diets (Example 3); conditions: for DDM (degradability of dry matter), mean / DOM (degradability of organic matter), mean: 48 hours
Experimental: The Effect of Different Doses of the Compounds Object of Study on the Ruminal Degradation of Two Different Diets the Composition of which is in Table 1 is Studied The diets consist of alfalfa hay (standard maintenance diet for ruminant animals) or of a mixture of 50% alfalfa hay and a commercial concentrate (standard lactation diet for ruminant animals). In vitro incubation is performed using ruminal fluid of goats as inoculum.

[5] = system: ruminal fermentation (methane-producing microorganisms); experiment: Production of gas by in vitro fermentation of the diets (Example 4)
Experimental: The effect of different doses of the compounds object of study on the production of gas promoted by in vitro fermentation for 24 and 48 hours of the diets the composition of which is included in Table 1 is studied.

[6] = Alfalfa hay + concentrate, 10 ppm
[7] = Alfalfa hay + concentrate, 25 ppm
[8] = Alfalfa hay + concentrate, 50 ppm
[9] = Alfalfa hay + concentrate, 300 ppm
[10] = Alfalfa hay + concentrate, 750 ppm
[11] = Alfalfa hay + concentrate, 1000 ppm
[12] = Alfalfa hay + concentrate, 2000 ppm
[13] = diet D1, 48 hours, 10 ppm, replicates
[14] = diet D1, 48 hours, 25 ppm, replicates
[15] = diet D1, 48 hours, concentration 50, replicates
[16] = diet D1, 48 hours, concentration 300, replicates
[17] = diet D1, 48 hours, concentration 750, replicates
[18] = diet D1, 48 hours, concentration 1000, replicates
[19] = diet D2, 48 hours, 10 ppm, replicates
[20] = diet D2, 48 hours, 25 ppm, replicates
[21] = diet D2, 48 hours, concentration 50, replicates
[22] = diet D2, 48 hours, concentration 300, replicates
[23] = diet D2, 48 hours, concentration 750, replicates
[24] = diet D2, 48 hours, concentration 1000, replicates
[25] = diet D2, 48 hours, concentration 2000, replicates

propyl propylthiosulfonate [PTSO] was tested, and the “growth of the bacterial groups studied” value [1] was “inhibited the growth of all the bacterial groups studied”, the “lactobacilli logarithmic reduction in the population” value [2] was “approximately 50%” and the “bifidobacteria logarithmic reduction in the population” value [3] was “approximately 50%”. For the same substance, the “DDM (degradability of dry matter), mean” value [4, 6] was 63.4^a, the “DOM (degradability of organic matter), mean” value (from here on “DOM … mean”) [4, 6] was 63.8^a and the “DDM (degradability of dry matter), mean” value [4, 7] was 62.5^a. For the same substance, the “DOM … mean” value [4, 7] was 60.6^a, the “DDM (degradability of dry matter), mean” value [4, 8] was 61.1^a and the “DOM … mean” value [4, 8] was 63.5^a. For the same substance, the “DDM (degradability of dry matter), mean” value [4, 9] was 45.2^b, the “DOM … mean” value [4, 9] was 44.7^b and the “DDM (degradability of dry matter), mean” value [4, 10] was 38.1^c. For the same substance, the “DOM … mean” value [4, 10] was 37.4^c, the “DDM (degradability of dry matter), mean” value [4, 11] was 37.2^c and the “DOM … mean” value [4, 11] was 36.0^c. For the same substance, the “DDM (degradability of dry matter), mean” value [4, 12] was 36.7^c, the “DOM … mean” value [4, 12] was 32.3^c and the “DDM (degradability of dry matter), mean” value ([4]; Alfalfa hay, 10 ppm) was 55.5^a. The “DOM … mean” value ([4]; Alfalfa hay, 10 ppm) was 48.4^ab, the “DDM (degradability of dry matter), mean” value ([4]; Alfalfa hay, 25 ppm) was 54.5^a and the “DOM … mean” value ([4]; Alfalfa hay, 25 ppm) was 53.2^ab. The “DDM (degradability of dry matter), mean” value ([4]; Alfalfa hay, 50 ppm) was 45.6^b, the “DOM … mean” value ([4]; Alfalfa hay, 50 ppm) was 45.9^b and the “DDM (degradability of dry matter), mean” value ([4]; Alfalfa hay, 300 ppm) was 36.2^c. For the same substance, the “DOM … mean” value ([4]; Alfalfa hay, 300 ppm) was 35.5^c, the “DDM (degradability of dry matter), mean” value ([4]; Alfalfa hay, 750 ppm) was 30.4^d and the “DOM … mean” value ([4]; Alfalfa hay, 750 ppm) was 29.9^c. The “DDM (degradability of dry matter), mean” value ([4]; Alfalfa hay, 1000 ppm) was 34.5^c, the “DOM … mean” value ([4]; Alfalfa hay, 1000 ppm) was 33.7^c and the “DDM (degradability of dry matter), mean” value ([4]; Alfalfa hay, 2000 ppm) was 30.3^d. The “DOM … mean” value ([4]; Alfalfa hay, 2000 ppm) was 29.0^c, the “Mean DDM” value ([4]; Table 3: diet D1, 48 hours, 2000 ppm) was 31.6% and the “DDM (degradation of dry matter)” value ([4]; Table 3: diet D1, 48 hours, 2000 ppm, replicates) was 30.9% and 30.2% and 32.0% and 31.4% and 32.2% and 32.7%. For the same substance, the DDM ([4]; Table 4: diet D1, 48 hours, concentration 2000, replicates) was 31.9% and 28.7%, the “effect on degradation of dry matter and organic matter” value ([4]; diet D1, 2000 ppm, 48 hours in vitro incubation) was “higher reduction” and the DDM [4, 13] was 54.9% and 56.1%. The DOM [4, 13] was 45.0% and 51.8%, the DDM [4, 14] was 54.1% and 55.0% and the DOM [4, 14] was 52.9% and 53.6%. The DDM [4, 15] was 45.5% and 45.7%, the DOM [4, 15] was 46.0% and 45.7% and the DDM [4, 16] was 36.6% and 35.8%. For the same substance, the DOM [4, 16] was 36.2% and 34.9%, the DDM [4, 17] was 31.0% and 29.9% and the DOM [4, 17] was 30.2% and 29.6%. For the same substance, the DDM [4, 18] was 33.4% and 35.6%, the DOM [4, 18] was 32.6% and 34.7% and the DOM ([4]; diet D1, 48 hours, concentration 2000, replicates) was 30.6% and 27.5%. For the same substance, the DDM [4, 19] was 63.1% and 63.7%, the DOM [4, 19] was 63.2% and 64.3% and the DDM [4, 20] was 62.4% and 62.7%. For the same substance, the DOM [4, 20] was 58.4% and 62.8%, the DDM [4, 21] was 61.1% and 63.9% and the DOM [4, 21] was 62.2% and 64.8%. For the same substance, the DDM [4, 22] was 44.4% and 46.0%, the DOM [4, 22] was 43.7% and 45.6% and the DDM [4, 23] was 39.9% and 36.3%. The DOM [4, 23] was 39.0% and 35.8%, the DDM [4, 24] was 35.9% and 38.4% and the DOM [4, 24] was 34.8% and 37.3%. For the same substance, the DDM [4, 25] was 37.1% and 36.3%, the DOM [4, 25] was 32.7% and 32.0% and the “inhibitory effect on production of fermentation gas, dependence on dose” value [5] was “dose-dependent”. The “inhibitory effect on production of fermentation gas, dependence on time” value ([5]; 24 and 48 hours) was “time-dependent” and the “doses at which the inhibitory effect on production of fermentation gas is observed” value ([5]; diet D2) was 10 ppm.
